Source: ChEMBL document CHEMBL4325851, “Synthesis of aminopyrazole analogs and their evaluation as CDK inhibitors for cancer therapy” (Bioorg Med Chem Lett, 2018)
Values belong to the compound of their own block, whether it stands above or below them.

Columns and labels:
[1] = biological target: Cyclin-dependent kinase 5/CDK5 activator 1 (Homo sapiens) (UniProt Q00535+Q15078); assay: Inhibition of CDK5/p35 (unknown origin) at 100 nM in presence of ATP relative to control; assay type: protein-complex assay
MIA PaCa-2 [2] = assay: Induction of apoptosis in human MIAPaCa2 cells assessed as increase in caspases 3/7 activity at 10 uM after 12 hrs by Caspase-Glo assay relative to control; assay type: functional
BXPC-3 = assay: Antiproliferative activity against human BxPC3 cells after 72 hrs by prestoblue assay; assay type: functional, cell-based; conditions: BXPC-3, 72 h
MIA PaCa-2 [3] = assay: Antiproliferative activity against human MIAPaCa2 cells after 72 hrs by prestoblue assay; assay type: functional, cell-based; conditions: MIA PaCa-2, 72 h
[4] = Antiproliferative activity against human SUIT2 cells after 72 hrs by prestoblue assay; assay type: functional, cell-based; conditions: SUIT-2, 72 h
[5] = Antiproliferative activity against human S2-013 cells after 72 hrs by prestoblue assay; assay type: functional, cell-based
ASPC1 = assay: Antiproliferative activity against human AsPC1 cells after 72 hrs by prestoblue assay; assay type: functional, cell-based; conditions: ASPC1, 72 h
[6] = biological target: Cyclin-dependent kinase 2/cyclin E1 (Homo sapiens, UniProt P24941); assay: Inhibition of CDK2/CyclinE (unknown origin) in presence of ATP; assay type: protein-complex assay
[7] = biological target: Cyclin-dependent kinase 5/CDK5 activator 1 (Homo sapiens, UniProt Q00535); assay: Inhibition of CDK5/p35 (unknown origin) in presence of ATP; assay type: protein-complex assay
[8] = biological target: Cyclin-dependent kinase 9 (Homo sapiens, UniProt P50750); assay: Inhibition of CDK9 (unknown origin)
[9] = biological target: Tyrosine-protein kinase BTK (Homo sapiens, UniProt Q06187); assay: Inhibition of BTK (unknown origin)
[10] = biological target: T1, Inhibitor of nuclear factor kappa-B kinase subunit beta (Homo sapiens, UniProt O14920); assay: Inhibition of IKKbeta (unknown origin)
T1 sequence (O14920 whole entry): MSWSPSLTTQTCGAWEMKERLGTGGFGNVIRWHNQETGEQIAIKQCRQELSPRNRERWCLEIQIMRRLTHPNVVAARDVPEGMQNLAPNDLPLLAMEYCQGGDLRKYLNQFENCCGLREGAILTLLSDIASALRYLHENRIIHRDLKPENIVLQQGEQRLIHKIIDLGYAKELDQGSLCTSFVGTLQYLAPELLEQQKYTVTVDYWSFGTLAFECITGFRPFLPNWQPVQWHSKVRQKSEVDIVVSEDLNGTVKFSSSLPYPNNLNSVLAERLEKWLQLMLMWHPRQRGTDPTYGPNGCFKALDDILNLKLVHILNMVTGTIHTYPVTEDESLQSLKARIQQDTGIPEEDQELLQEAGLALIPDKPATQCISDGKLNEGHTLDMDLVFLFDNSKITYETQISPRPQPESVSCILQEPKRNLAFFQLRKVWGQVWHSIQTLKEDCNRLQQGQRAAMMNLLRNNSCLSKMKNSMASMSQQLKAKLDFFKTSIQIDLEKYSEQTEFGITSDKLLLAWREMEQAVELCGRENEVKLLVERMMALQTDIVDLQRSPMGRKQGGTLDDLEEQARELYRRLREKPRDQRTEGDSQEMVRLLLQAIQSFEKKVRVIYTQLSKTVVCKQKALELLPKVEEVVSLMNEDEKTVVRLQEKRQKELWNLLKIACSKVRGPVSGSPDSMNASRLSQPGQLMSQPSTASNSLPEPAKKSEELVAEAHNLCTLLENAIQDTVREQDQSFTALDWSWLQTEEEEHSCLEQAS

Aurora kinase A = biological target: T2, Aurora kinase A (Homo sapiens, UniProt O14965); assay: Inhibition of Aurora A (unknown origin)
T2 sequence (O14965 whole entry): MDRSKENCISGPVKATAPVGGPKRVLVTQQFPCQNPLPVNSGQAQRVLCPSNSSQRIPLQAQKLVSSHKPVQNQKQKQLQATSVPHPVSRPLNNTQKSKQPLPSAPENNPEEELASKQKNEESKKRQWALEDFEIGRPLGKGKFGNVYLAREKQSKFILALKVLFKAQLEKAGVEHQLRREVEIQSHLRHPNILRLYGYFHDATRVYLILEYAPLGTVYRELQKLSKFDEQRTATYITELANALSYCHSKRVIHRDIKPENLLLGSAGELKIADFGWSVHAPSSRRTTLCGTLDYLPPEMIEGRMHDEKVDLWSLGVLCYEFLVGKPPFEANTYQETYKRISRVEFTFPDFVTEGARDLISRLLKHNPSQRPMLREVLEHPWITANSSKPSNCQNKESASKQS

Aurora kinase B = Aurora kinase B (Homo sapiens, UniProt Q96GD4); assay: Inhibition of Aurora B (unknown origin)
[11] = biological target: T3, Mitogen-activated protein kinase kinase kinase 12 (Homo sapiens, UniProt Q12852); assay: Inhibition of DLK (unknown origin)
T3 sequence (Q12852 whole entry): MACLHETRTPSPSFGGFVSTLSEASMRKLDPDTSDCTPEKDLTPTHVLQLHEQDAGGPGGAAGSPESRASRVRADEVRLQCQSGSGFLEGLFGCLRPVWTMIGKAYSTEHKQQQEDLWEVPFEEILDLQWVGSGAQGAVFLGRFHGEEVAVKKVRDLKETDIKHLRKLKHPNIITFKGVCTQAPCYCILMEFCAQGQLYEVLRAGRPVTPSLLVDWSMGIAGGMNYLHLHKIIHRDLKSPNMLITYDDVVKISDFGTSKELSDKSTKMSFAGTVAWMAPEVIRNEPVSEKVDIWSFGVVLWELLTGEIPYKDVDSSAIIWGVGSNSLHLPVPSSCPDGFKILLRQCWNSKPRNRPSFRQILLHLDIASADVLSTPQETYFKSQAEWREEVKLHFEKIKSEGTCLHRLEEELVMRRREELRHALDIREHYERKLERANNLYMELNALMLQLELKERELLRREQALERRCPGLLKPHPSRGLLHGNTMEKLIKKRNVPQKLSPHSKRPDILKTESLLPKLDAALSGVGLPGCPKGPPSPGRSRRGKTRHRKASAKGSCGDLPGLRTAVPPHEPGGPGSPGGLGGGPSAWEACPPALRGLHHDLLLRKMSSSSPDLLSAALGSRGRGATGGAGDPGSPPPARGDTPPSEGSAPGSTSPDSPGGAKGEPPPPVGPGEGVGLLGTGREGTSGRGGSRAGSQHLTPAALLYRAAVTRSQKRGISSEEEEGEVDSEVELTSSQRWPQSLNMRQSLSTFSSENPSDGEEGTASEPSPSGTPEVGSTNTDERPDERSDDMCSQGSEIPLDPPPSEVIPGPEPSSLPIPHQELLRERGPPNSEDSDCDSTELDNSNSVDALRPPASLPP

[12] = biological target: T4, Tyrosine-protein kinase ITK/TSK (Homo sapiens, UniProt Q08881); assay: Inhibition of ITK (unknown origin)
T4 sequence (Q08881 whole entry): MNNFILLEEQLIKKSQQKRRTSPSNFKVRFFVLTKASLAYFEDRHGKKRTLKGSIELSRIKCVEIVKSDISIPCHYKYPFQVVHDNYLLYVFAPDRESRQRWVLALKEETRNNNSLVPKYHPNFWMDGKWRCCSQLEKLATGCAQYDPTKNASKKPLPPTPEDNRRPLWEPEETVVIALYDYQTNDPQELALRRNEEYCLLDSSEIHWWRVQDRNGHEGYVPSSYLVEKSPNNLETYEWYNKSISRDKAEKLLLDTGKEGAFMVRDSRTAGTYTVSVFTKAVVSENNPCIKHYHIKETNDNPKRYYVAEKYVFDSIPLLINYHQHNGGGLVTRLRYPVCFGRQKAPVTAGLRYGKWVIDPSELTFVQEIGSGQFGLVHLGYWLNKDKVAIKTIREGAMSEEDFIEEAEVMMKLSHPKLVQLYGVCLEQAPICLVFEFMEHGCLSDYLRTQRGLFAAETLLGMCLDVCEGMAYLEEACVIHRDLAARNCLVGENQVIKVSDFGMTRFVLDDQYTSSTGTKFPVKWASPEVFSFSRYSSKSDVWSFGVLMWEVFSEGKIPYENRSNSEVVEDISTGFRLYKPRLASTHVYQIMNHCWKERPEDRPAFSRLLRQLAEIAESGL

[13] = biological target: Mitogen-activated protein kinase 10 (Homo sapiens, UniProt P53779); assay: Inhibition of JNK3 (unknown origin) after 22 mins by homogeneous time-resolved fluorescence assay
[14] = biological target: Mitogen-activated protein kinase 14 (Homo sapiens, UniProt Q16539); assay: Inhibition of MAPK14 (unknown origin) after 22 mins by homogeneous time-resolved fluorescence assay
[15] = biological target: Serine/threonine-protein kinase PAK 1 (Homo sapiens, UniProt Q13153); assay: Inhibition of PAK1 (unknown origin)
[16] = biological target: High affinity nerve growth factor receptor (Homo sapiens, UniProt P04629); assay: Inhibition of TRKA (unknown origin)
[17] = biological target: Leucine-rich repeat serine/threonine-protein kinase 2 (Homo sapiens, UniProt Q5S007); assay: Inhibition of LRRK2 (unknown origin)
Homo sapiens [18] = species: Homo sapiens; assay: Selectivity ratio of IC50 for CDK9 (unknown origin) to IC50 for CDK2/CyclinE (unknown origin)
Homo sapiens [19] = species: Homo sapiens; assay: Selectivity ratio of IC50 for CDK9 (unknown origin) to IC50 for CDK5/p35 (unknown origin)

Sequence of Cyclin-dependent kinase 5/CDK5 activator 1 (Homo sapiens) (Q00535 whole entry): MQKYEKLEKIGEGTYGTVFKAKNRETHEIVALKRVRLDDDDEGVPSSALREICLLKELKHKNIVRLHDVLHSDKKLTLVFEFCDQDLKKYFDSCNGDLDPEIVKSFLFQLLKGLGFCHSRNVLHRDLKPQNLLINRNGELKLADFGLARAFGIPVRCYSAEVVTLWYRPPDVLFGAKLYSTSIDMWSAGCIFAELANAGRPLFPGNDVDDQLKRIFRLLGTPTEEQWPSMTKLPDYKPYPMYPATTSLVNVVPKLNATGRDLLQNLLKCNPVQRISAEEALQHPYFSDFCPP
Sequence of Cyclin-dependent kinase 5/CDK5 activator 1 (Homo sapiens) (Q15078 99-307 partner limits assumed): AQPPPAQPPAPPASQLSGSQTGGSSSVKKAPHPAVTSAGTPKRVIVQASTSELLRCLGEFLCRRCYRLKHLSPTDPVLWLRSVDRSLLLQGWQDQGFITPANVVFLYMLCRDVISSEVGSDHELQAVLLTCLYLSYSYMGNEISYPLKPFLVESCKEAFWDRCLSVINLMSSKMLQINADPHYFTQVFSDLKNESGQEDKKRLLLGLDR
Sequence of Mitogen-activated protein kinase 10 (P53779 whole entry): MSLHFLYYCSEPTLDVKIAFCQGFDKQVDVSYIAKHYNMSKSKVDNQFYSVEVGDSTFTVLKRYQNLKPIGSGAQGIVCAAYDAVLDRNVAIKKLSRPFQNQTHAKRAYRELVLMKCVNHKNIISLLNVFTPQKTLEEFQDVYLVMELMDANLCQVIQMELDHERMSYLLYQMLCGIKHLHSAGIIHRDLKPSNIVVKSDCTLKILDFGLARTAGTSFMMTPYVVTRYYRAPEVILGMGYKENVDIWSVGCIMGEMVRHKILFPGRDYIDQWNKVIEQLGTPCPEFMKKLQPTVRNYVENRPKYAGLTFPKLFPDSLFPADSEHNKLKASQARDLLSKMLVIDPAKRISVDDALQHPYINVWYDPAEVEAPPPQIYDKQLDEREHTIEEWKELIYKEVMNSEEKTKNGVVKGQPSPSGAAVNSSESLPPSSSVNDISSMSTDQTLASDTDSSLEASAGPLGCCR
Sequence of Cyclin-dependent kinase 9 (P50750 whole entry): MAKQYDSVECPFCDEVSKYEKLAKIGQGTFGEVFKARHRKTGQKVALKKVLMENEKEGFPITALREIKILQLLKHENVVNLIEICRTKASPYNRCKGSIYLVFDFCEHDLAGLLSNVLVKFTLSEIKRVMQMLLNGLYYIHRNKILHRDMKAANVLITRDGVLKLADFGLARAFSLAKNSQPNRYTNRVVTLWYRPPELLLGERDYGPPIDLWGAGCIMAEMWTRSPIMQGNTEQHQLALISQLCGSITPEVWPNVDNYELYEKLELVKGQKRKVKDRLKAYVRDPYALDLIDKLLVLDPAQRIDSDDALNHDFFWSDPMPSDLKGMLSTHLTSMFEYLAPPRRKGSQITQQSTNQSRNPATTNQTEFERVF
Sequence of Leucine-rich repeat serine/threonine-protein kinase 2 (Q5S007 whole entry): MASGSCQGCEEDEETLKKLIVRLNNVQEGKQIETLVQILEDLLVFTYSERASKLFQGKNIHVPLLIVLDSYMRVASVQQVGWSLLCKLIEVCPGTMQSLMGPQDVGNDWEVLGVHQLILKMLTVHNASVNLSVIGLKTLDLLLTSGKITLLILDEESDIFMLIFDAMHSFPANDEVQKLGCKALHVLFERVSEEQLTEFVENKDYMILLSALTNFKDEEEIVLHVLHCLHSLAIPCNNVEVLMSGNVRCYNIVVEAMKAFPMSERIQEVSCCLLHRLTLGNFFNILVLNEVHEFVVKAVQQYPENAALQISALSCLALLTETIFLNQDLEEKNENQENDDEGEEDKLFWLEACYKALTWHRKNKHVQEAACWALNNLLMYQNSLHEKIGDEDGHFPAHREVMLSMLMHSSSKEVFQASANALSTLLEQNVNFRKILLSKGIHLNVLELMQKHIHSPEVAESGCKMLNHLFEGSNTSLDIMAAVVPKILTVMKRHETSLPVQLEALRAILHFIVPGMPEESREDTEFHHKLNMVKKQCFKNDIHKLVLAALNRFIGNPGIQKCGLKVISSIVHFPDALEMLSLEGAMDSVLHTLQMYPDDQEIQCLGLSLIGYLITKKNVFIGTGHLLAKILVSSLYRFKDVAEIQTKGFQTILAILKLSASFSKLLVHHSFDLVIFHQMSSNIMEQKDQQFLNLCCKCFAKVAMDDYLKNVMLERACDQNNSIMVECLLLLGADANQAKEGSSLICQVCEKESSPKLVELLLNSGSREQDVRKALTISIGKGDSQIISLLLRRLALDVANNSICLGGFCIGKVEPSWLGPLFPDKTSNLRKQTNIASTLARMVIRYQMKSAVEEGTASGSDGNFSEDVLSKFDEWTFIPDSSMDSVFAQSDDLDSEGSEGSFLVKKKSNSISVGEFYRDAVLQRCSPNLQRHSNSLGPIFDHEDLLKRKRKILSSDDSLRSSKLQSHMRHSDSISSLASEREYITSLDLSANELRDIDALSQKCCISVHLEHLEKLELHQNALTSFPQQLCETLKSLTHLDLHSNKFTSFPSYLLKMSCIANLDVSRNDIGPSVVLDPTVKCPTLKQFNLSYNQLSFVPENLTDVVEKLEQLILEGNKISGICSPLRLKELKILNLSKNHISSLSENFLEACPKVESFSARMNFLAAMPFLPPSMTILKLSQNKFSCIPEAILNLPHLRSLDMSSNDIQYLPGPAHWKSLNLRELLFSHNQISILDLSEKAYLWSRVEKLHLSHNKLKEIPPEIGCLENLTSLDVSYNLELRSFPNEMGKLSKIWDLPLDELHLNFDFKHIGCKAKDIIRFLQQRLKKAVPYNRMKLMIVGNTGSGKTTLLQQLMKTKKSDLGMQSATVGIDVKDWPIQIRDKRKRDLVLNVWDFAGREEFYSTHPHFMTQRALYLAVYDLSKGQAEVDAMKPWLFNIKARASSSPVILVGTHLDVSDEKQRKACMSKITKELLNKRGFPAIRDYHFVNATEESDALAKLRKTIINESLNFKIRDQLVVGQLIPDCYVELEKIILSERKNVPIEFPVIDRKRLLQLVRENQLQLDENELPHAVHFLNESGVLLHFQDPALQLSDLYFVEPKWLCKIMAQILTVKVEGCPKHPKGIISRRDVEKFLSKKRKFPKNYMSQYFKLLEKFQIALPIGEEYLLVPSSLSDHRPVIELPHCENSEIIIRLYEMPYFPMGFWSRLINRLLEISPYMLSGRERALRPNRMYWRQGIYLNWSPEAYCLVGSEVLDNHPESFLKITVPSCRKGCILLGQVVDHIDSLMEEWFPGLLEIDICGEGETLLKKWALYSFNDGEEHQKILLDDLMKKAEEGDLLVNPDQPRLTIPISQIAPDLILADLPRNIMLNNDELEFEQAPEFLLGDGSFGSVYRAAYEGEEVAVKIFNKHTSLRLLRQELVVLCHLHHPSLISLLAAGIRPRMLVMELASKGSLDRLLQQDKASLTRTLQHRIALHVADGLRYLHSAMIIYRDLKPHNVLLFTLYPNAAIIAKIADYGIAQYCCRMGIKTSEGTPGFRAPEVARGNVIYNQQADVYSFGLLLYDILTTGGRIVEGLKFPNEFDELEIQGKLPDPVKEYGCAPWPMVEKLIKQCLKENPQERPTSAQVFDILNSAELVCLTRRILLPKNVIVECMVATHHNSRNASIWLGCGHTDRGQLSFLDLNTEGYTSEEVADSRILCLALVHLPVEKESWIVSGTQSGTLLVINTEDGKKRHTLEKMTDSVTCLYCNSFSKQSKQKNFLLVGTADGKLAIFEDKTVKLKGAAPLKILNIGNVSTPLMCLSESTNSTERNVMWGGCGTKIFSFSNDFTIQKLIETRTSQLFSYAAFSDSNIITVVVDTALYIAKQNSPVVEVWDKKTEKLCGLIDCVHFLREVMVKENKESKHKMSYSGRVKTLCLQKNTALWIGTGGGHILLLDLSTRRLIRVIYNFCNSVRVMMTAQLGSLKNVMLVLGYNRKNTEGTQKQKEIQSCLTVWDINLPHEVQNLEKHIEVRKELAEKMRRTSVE
Sequence of High affinity nerve growth factor receptor (P04629 whole entry): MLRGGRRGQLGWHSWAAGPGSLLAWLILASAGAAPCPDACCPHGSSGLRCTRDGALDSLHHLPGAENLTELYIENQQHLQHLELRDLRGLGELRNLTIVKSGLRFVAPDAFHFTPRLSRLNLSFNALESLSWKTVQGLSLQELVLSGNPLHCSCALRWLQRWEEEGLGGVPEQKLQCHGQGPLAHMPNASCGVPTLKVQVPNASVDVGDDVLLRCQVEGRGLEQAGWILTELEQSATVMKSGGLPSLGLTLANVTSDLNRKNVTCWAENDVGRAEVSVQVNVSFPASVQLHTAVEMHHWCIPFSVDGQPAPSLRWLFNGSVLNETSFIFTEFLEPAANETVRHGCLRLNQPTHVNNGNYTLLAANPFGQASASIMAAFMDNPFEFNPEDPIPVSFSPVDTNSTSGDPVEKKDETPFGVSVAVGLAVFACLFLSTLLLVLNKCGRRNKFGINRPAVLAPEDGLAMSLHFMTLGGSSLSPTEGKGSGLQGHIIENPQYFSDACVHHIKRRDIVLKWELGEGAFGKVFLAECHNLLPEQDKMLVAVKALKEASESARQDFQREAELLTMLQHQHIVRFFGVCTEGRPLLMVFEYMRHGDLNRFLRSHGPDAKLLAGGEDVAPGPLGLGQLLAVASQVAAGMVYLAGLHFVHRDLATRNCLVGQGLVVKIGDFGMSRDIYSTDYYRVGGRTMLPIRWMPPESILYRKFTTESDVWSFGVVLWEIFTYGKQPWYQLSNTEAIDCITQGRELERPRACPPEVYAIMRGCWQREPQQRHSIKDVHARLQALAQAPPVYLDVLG
Sequence of Mitogen-activated protein kinase 14 (Q16539 whole entry): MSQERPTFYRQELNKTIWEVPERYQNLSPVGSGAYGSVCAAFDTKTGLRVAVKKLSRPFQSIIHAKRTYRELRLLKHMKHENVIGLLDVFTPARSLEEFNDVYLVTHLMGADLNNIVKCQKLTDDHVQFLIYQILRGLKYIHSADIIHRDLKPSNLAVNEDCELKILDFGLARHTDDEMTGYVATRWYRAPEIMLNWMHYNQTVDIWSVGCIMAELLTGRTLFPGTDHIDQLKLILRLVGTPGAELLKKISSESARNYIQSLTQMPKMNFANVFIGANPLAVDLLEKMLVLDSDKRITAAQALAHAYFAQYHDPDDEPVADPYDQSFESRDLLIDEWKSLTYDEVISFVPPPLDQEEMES

- inhibition [1]: > 90%
Structure (SMILES): O=C(C/C=C/c1ccccc1)Nc1n[nH]c2ccccc12
- fold change (FC) (MIA PaCa-2 [2]): <2

- inhibition [1]: > 90%
Structure (SMILES): Cc1cc(NC(=O)Cc2ccc3c(c2)OCCO3)n[nH]1
- fold change (FC) (MIA PaCa-2 [2]): <2

- IC50 (BXPC-3): 640 nM
- IC50 (MIA PaCa-2 [3]): 411 nM
Structure (SMILES): O=C(NC1CCNCC1)c1n[nH]cc1NC(=O)c1c(Cl)cccc1Cl [AT-7519]
- IC50 [4]: 557 nM
- IC50 [5]: 2770 nM

- inhibition [1]: > 90%
Structure (SMILES): COc1ccc(CC(=O)Nc2n[nH]c3ccccc23)cc1OC
- fold change (FC) (MIA PaCa-2 [2]): <2

- inhibition [1]: > 90%
Structure (SMILES): Cc1cc(NC(=O)C/C=C/c2ccccc2)n[nH]1
- fold change (FC) (MIA PaCa-2 [2]): <2

- inhibition [1]: > 90%
Structure (SMILES): O=C(C/C=C/c1ccccc1)Nc1cc(C2CCCC2)[nH]n1
- fold change (FC) (MIA PaCa-2 [2]): <2

- inhibition [1]: > 90%
Structure (SMILES): COc1ccc(CC(=O)Nc2cc(C3CCC3)[nH]n2)cc1OC
- fold change (FC) (MIA PaCa-2 [2]): <2

- inhibition [1]: > 90%
Structure (SMILES): Cc1cc(NC(=O)Cc2ccc3ccccc3c2)n[nH]1
- fold change (FC) (MIA PaCa-2 [2]): <2

- inhibition [1]: > 90%
Structure (SMILES): O=C(Cc1ccc2c(c1)OCCO2)Nc1cc(C2CCCC2)[nH]n1
- fold change (FC) (MIA PaCa-2 [2]): <2

- inhibition [1]: > 90%
Structure (SMILES): O=C(Cc1ccc2c(c1)OCCO2)Nc1cc(C2CCC2)[nH]n1
- fold change (FC) (MIA PaCa-2 [2]): <2

- inhibition [1]: > 90%
- IC50 (ASPC1): > 2000 nM
- IC50 (BXPC-3): > 2000 nM
- IC50 (MIA PaCa-2 [3]): 1560 nM
Structure (SMILES): O=C(C/C=C/c1ccccc1)Nc1cc(C2CCC2)[nH]n1
- fold change (FC) (MIA PaCa-2 [2]): >2
- IC50 [4]: > 2000 nM
- IC50 [5]: 1470 nM

- inhibition [1]: > 90%
Structure (SMILES): O=C(Cc1ccc2c(c1)OCCO2)Nc1cc(-c2ccccc2)[nH]n1
- fold change (FC) (MIA PaCa-2 [2]): <2

- inhibition [1]: > 90%
- IC50 (ASPC1): 315 nM
- IC50 (MIA PaCa-2 [3]): 247 nM
- IC50 [6]: 24 nM
- IC50 [7]: 23 nM
- IC50 [8]: 911 nM
- IC50 [9]: > 10000 nM
- IC50 [10]: > 10000 nM
- IC50 (Aurora kinase A): > 10000 nM
- IC50 (Aurora kinase B): > 10000 nM
- IC50 [11]: > 10000 nM
- IC50 [12]: > 10000 nM
- IC50 [13]: > 10000 nM
- IC50 [14]: > 10000 nM
- IC50 [15]: > 10000 nM
- IC50 [16]: > 10000 nM
- IC50 [17]: > 10000 nM
- Ratio IC50 (Homo sapiens [18]): > 35
- Ratio IC50 (Homo sapiens [19]): > 35
Structure (SMILES): O=C(Cc1ccc(-c2ccccc2)cc1)Nc1cc(C2CCC2)[nH]n1
- fold change (FC) (MIA PaCa-2 [2]): >2
- IC50 [4]: 209 nM
- IC50 [5]: 192 nM

- inhibition [1]: > 90%
- IC50 (ASPC1): 1160 nM
- IC50 (BXPC-3): > 2000 nM
Structure (SMILES): O=C(Cc1ccc2ccccc2c1)Nc1cc(C2CCC2)[nH]n1
- fold change (FC) (MIA PaCa-2 [2]): >2
- IC50 [4]: > 2000 nM
- IC50 [5]: 875 nM

- inhibition [1]: > 90%
Structure (SMILES): O=C(Cc1ccc2ccccc2c1)Nc1cc(C2CC2)n[nH]1
- fold change (FC) (MIA PaCa-2 [2]): <2
